Laboratory results published in US8785467B2, “Alkoxy pyrimidine PDE10 inhibitors” (Merck Sharp & Dohme Corp., priority 2010, dated 2014).
pKi: −log10 of the molar value.

Molecular target: human PDE10A2 (Homo sapiens (Human), UniProt Q9Y233)
Experiment: PDE10 fluorescence polarization (IMAP FP) inhibition assay
Assay type: biochemical
Details: human PDE10A2 from transfected AD293 cell lysate, FAM-labeled cAMP 50 nM, room temperature; read-out: PDE10A Ki
Method: The activity of the compounds in accordance with the present invention as PDE10 inhibitors may be readily determined without undue experimentation using a fluorescence polarization (FP) methodology that is well known in the art (Huang, W., et al., J. Biomol Screen, 2002, 7: 215).
In a typical experiment the PDE10 inhibitory activity of the compounds of the present invention was determined in accordance with the following experimental method. PDE10A2 was amplified from human fetal brain cDNA (Clontech, Mountain View, Calif.) using a forward primer corresponding to nucleotides 56-77 of human PDE10A2 (Accession No. AF127480, Genbank Identifier 4894716), containing a Kozak consensus sequence, and a reverse primer corresponding to nucleotides 2406-2413 of human PDE10A2 (Accession No. AF 127480, Genbank Identifier 4894716). Amplification with Easy-A polymerase (Stratagene, La Jolla, Calif.) was 95° C. for 2 minutes followed by thirty three cycles of 95° C. for 40 seconds, 55° C. for 30 seconds, and 72° C. for 2 minutes 48 seconds. Final extension was 72° C. for 7 minutes. The PCR product was TA cloned into pcDNA3.2-TOPO (Invitrogen, Carlsbad, Calif.) according to standard protocol. AD293 cells with 70-80% confluency were transiently transfected with human PDE10A2/pcDNA3.2-TOPO using Lipofectamine 2000 according to manufacturer specifications (Invitrogen, Carlsbad, Calif.). Cells were harvested 48 hours post-transfection and lysed by sonication (setting 3, 10×5 sec pulses) in a buffer containing 20 mM HEPES, 1 mM EDTA and protease inhibitor cocktail (Roche). Lysate was collected by centrifugation at 75,000×g for 20 minutes. Supernatant containing the cytoplasmic fraction was used for evaluation of PDE10A2 activity. The fluorescence polarization assay for cyclic nucleotide phosphodiesterases was performed using an IMAP® FP kit supplied by Molecular Devices, Sunnyvale, Calif. (product #R8139). IMAP® technology has been applied previously to phosphodiesterase assays (Huang, W., et al., J. Biomol Screen, 2002, 7: 215). Assays were performed at room temperature in 384-well microtiter plates with an incubation volume of 20.2 μL. Solutions of test compounds were prepared in DMSO and serially diluted with DMSO to yield 8 μL of each of 10 solutions differing by 3-fold in concentration, at 32 serial dilutions per plate. 100% inhibition is determined using a known PDE10 inhibitor, which can be any compound that is present at 5,000 times its Ki value in the assay described as follows, such as papaverine (see Siuciak, et al. Neuropharmacology (2006) 51:386-396; Becker, et al. Behav Brain Res (2008) 186(2):155-60; Threlfell, et al., J Pharmacol Exp Ther (2009) 328(3):785-795), 2-{4-[pyridin-4-yl-1-(2,2,2-trifluoroethyl)-1H-pyrazol-3-yl]phenoxymethyl}quinoline succinic acid or 2-[4-(1-methyl-4-pyridin-4-yl-1H-pyrazol-3-yl)-phenoxymethyl]quinoline succinic acid (see Schmidt, et al. J Pharmacol Exp Ther (2008) 325:681-690; Threlfell, et al., J Pharmacol Exp Ther (2009) 328(3): 785-795). 0% of inhibition is determined by using DMSO (1% final concentrations).
A Labcyte Echo 555 (Labcyte, Sunnyvale, Calif.) is used to dispense 200 nL from each well of the titration plate to the 384 well assay plate. A solution of enzyme ( 1/1600 dilution from aliquots; sufficient to produce 20% substrate conversion) and a separate solution of FAM-labeled cAMP PDE from Molecular Devices (product #R7506), at a final concentration of 50 nM are made in the assay buffer (10 mM Tris HCl, pH 7.2, 10 mM MgCl2, 0.05% NaN3 0.01% Tween-20, and 1 mM DTT). The enzyme and the substrate are then added to the assay plates in two consecutive additions of 10 μL, and then shaken to mix. The reaction is allowed to proceed at room temperature for 30 minutes. A binding solution is then made from the kit components, comprised of 80% Solution A, 20% Solution B and binding reagent at a volume of 1/600 the total binding solution. […]

Chain of human PDE10A2 (Q9Y233 267-1055): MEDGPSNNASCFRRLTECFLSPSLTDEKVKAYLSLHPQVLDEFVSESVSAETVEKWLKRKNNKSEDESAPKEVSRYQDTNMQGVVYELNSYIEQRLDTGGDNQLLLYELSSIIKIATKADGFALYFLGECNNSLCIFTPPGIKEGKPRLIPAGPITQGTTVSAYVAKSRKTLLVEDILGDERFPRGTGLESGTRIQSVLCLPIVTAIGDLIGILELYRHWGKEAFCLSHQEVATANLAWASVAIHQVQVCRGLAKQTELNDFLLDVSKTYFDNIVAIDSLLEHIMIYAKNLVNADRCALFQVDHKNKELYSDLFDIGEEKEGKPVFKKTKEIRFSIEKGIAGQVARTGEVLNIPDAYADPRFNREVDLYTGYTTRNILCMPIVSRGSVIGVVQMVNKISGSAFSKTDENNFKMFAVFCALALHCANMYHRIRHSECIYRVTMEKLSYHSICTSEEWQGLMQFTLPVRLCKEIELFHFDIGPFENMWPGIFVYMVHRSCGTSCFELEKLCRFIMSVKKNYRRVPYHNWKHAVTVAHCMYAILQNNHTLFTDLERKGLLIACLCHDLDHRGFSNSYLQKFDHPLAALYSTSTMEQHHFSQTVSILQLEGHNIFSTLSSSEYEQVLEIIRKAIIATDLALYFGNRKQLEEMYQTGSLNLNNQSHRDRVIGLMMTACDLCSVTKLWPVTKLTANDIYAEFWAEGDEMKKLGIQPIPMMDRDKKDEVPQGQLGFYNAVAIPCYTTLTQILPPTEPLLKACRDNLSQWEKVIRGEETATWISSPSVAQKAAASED

| pKi | SMILES |
| --- | --- |
| 10.40 | Cc1nc(C)c(CNc2nc(OCCOc3ccc4cccnc4n3)nc(Cl)c2C)s1 [Compound 1-32, 6-chloro-N-[(2,4-dimethyl-1,3-thiazol-5-yl)methyl]-5-methyl-2-[2-(1,8-naphthyridin-2-yloxy)ethoxy]pyrimidin-4-amine] |
| 8.68 | Cc1c(Cl)nc(OCCCc2ccc3ncccc3n2)nc1NCc1cnn(C)c1 [Compound 1-21, 6-chloro-5-methyl-N-[(1-methyl-1H-pyrazol-4-yl)methyl]-2-[3-(1,5-naphthyridin-2-yl)propoxy]pyrimidin-4-amine] |
| 9.77 | CSc1nc(OC[C@H]2C[C@@H]2c2ccccn2)nc(NCc2cnn(C)c2)c1C (stereo in doubt) [Compound 1-43, 5-methyl-N-((1-methyl-1H-pyrazol-4-yl)methyl)-6-(methylthio)-2-((2-(pyridin-2-yl)cyclopropyl)methoxy)-pyrimidin-4-amine] |
| 9.31 | Cc1nc(C)c(CNc2nc(OC[C@H]3C[C@@H]3c3ccc4ncccc4n3)nc(Cl)c2C)o1 [Compound 1-48, 2-(((1S,2S)-2-(1,5-naphthyridin-2-yl)cyclopropyl)methoxy)-6-chloro-N-((2,4-dimethyloxazol-5-yl)methyl)-5-methylpyrimidin-4-amine] |
| 7.28 | Cc1c(NCc2cnn(C)c2)nc(OC[C@H]2C[C@@H]2c2ccccn2)nc1N(C)C (stereo in doubt) [Compound 1-44, N4,N4,5-trimethyl-N6-((1-methyl-1H-pyrazol-4-yl)methyl)-2-((2-(pyridin-2-yl)cyclopropyl)methoxy)pyrimidine-4,6-diamine] |
| 10.64 | Cc1nc(C)c(CNc2nc(OCCCc3nc4ccccc4[nH]3)nc(Cl)c2C)s1 [Compound 1-27, 2-[3-(1H-benzimidazol-2-yl)propoxy]-6-chloro-N-[(2,4-dimethyl-1,3-thiazol-5-yl)methyl]-5-methylpyrimidin-4-amine] |
| 10.24 | Cc1nc(C)c(CNc2nc(OC[C@H]3C[C@@H]3c3ccc4ncccc4n3)ncc2C)s1 [Compound 1-45, 2-(((1S,2S)-2-(1,5-naphthyridin-2-yl)cyclopropyl)methoxy)-N-((2,4-dimethylthiazol-5-yl)methyl)-5-methylpyrimidin-4-amine] |
| 9.11 | COc1ccc([C@H]2C[C@@H]2COc2nc(Cl)c(C)c(NCc3cnn(C)n3)n2)nc1 [Compound 1-50] |
| 7.00 | Cc1nc(C)c(CNc2nc(OCCc3ccccn3)nc(C#N)c2C)s1 [Compound 1-42, 6-((2,4-dimethylthiazol-5-yl)methylamino)-5-methyl-2-(2-(pyridin-2-yl)ethoxy)pyrimidine-4-carbonitrile] |
| 9.36 | Cc1c(Cl)nc(OC[C@@H]2C[C@H]2c2ccccn2)nc1NCc1cnn(C)c1 (stereo in doubt) [Compound 1-39, 6-chloro-5-methyl-N-[(1-methyl-1H-pyrazol-4-yl)methyl]-2-{[2-(pyridin-2-yl)cyclopropyl]methoxy}pyrimidin-4-amine] |
| 11.49 | Cc1cc(CNc2nc(OC[C@H]3C[C@@H]3c3ccc4ncccc4n3)nc(Cl)c2C)n(C)n1 [Compound 1-51, 2-(((1S,2S)-2-(1,5-naphthyridin-2-yl)cyclopropyl)methoxy)-6-chloro-N-((1,3-dimethyl-1H-pyrazol-5-yl)methyl)-5-methylpyrimidin-4-amine] |
| 8.19 | Cc1nc(C)c(CNc2nc(OC[C@H]3C[C@@H]3c3ccccn3)nc(-c3ncco3)c2C)s1 (stereo in doubt) [Compound 1-46, N-((2,4-dimethylthiazol-5-yl)methyl)-5-methyl-6-(oxazol-2-yl)-2-((2-(pyridin-2-yl)cyclopropyl)methoxy)-pyrimidin-4-amine] |
| 10.72 | Cc1nc(C)c(CNc2nc(OC[C@H]3C[C@@H]3c3ccccn3)nc(Cl)c2C)s1 (stereo in doubt) [Compound 1-20, 6-chloro-N-[(2,4-dimethyl-1,3-thiazol-5-yl)methyl]-5-methyl-2-{[2-pyridin-2-ylcyclopropyl]methoxy}pyrimidin-4-amine] |
| 11.10 | Cc1nc(C)c(CNc2nc(OCCCc3ccc4ccccc4n3)nc(Cl)c2C)s1 [Compound 1-29, 6-chloro-N-[(2,4-dimethyl-1,3-thiazol-5-yl)methyl]-5-methyl-2-(3-quinolin-2-ylpropoxy)pyrimidin-4-amine] |
| 8.66 | Cc1nc(CNc2nc(OC[C@H]3C[C@@H]3c3ccc4ncccc4n3)nc(Cl)c2C)n(C)n1 [Compound 1-49, 2-(((1S,2S)-2-(1,5-naphthyridin-2-yl)cyclopropyl)methoxy)-6-chloro-N-((1,3-dimethyl-1H-1,2,4-triazol-5-yl)methyl)-5-methylpyrimidin-4-amine] |
| 8.09 | Cc1c(Cl)nc(OC[C@H]2C[C@@H]2c2ccc3ncccc3n2)nc1NCc1nc(C)n(C)n1 [Compound 1-47, 2-(((1S,2S)-2-(1,5-naphthyridin-2-yl)cyclopropyl)methoxy)-6-chloro-N-((1,5-dimethyl-1H-1,2,4-triazol-3-yl)methyl)-5-methylpyrimidin-4-amine] |
| 7.46 | Cn1cc(CNc2cc(C#N)nc(OC[C@H]3C[C@@H]3c3ccccn3)n2)cn1 (stereo in doubt) [Compound 1-41, 6-((1-methyl-1H-pyrazol-4-yl)methylamino)-2-((2-(pyridin-2-yl)cyclopropyl)methoxy)pyrimidin-4-carbonitrile] |
